In assay [1] the target is T1, Human Recombinant Glucocorticoid Receptor (Homo sapiens, UniProt P04150).
T1 construct: This GR was a full-length steroid hormone receptor likely to be associated with heat-shock and other endogenous proteins; host or cells: baculovirus-infected insect cells
T1 sequence (P04150 1-777): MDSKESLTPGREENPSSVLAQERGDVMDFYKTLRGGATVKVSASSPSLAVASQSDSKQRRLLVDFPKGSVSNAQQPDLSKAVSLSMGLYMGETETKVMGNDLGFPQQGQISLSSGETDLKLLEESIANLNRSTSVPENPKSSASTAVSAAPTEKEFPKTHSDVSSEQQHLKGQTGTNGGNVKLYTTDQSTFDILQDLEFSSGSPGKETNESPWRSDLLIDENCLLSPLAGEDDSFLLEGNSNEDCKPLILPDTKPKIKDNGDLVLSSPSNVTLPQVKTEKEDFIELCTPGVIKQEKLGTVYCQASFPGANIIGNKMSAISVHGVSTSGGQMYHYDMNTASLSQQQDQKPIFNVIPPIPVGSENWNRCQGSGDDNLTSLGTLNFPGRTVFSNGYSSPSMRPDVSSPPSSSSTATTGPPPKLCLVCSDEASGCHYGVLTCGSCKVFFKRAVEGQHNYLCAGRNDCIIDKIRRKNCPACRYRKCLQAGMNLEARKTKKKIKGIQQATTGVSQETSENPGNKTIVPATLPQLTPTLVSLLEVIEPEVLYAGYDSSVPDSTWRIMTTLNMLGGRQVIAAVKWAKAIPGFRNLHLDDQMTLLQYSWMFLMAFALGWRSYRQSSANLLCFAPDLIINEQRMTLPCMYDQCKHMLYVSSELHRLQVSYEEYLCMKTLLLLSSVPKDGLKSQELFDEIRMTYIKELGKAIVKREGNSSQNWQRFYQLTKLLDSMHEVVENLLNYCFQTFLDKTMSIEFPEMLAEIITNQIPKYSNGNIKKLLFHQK
The assay is described as follows: Glucocorticoid receptor binding displacement assay with 3H-dexamethasone. Conditions: displacement of 2.5 nM 3H-dexamethasone; Ki from IC50 by Cheng-Prusoff; read-out: GR Binding Ki.

The target in assay [2] is T2, glucocorticoid receptors (GR) in SW1353/MMTV-5 cells (Homo sapiens, UniProt P04150).
T2 construct: contains endogenous glucocorticoid receptors; endogenous in cells; host or cells: SW1353/MMTV-5 (human chondrosarcoma, stably transfected with the pMAMneo-Luc reporter only)
T2 sequence (P04150 1-777): T1 sequence (P04150 1-777)
The assay is described as follows: GR functional assay using SW1353/MMTV-5 cells (MMTV-luciferase reporter). It is filed as cell-based. Put shortly:
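Human chondrosarcoma line stably carrying firefly luciferase under an MMTV LTR glucocorticoid-responsive element, with endogenous GR. Cells were plated in 96-well plates and held 24 hrs in geneticin-free medium without CO2.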
In general terms: A reporter such as luciferase makes a cellular process visible.

With `O=C(OC1CCC1)[C@]12Cc3cnn(-c4ccc(F)cc4)c3C=C1CCN(S(=O)(=O)c1ccc(N3CCOCC3)nc1)C2` [Example 50, (R)-1-(4-Fluorophenyl)-6-(6-morpholin-4-yl-pyridine-3-sulfonyl]-1,4,5,6,7,8-hexahydro-1,2,6-triaza-cyclopenta[b]naphthalene-4a-carboxylic acid cyclobutyl ester], the Ki in assay [1] is 0.5 to 1 nM; in assay [2], less than 10 nM.

In the case of `O=C(OCC1CC1)[C@]12Cc3cnn(-c4ccc(F)cc4)c3C=C1CCN(S(=O)(=O)c1ccc(N3CCOCC3)nc1)C2` [Example 51, (R)-1-(4-Fluorophenyl)-6-(6-morpholin-4-yl-pyridine-3-sulfonyl]-1,4,5,6,7,8-hexahydro-1,2,6-triaza-cyclopenta[b]naphthalene-4a-carboxylic acid cyclopropylmethyl ester], the Ki in assay [1] is 0.5 to 1 nM; in assay [2], less than 10 nM.

As to `O=C(OCC1CCC1)[C@]12Cc3cnn(-c4ccc(F)cc4)c3C=C1CCN(S(=O)(=O)c1ccc(N3CCOCC3)nc1)C2` [Example 52, (R)-1-(4-Fluorophenyl)-6-(6-morpholin-4-yl-pyridine-3-sulfonyl]-1,4,5,6,7,8-hexahydro-1,2,6-triaza-cyclopenta[b]naphthalene-4a-carboxylic acid cyclobutylmethyl ester], the Ki was 0.5 to 1 nM in assay [1] and less than 10 nM in assay [2].

On to `O=C(OCC1CC(O)C1)[C@]12Cc3cnn(-c4ccc(F)cc4)c3C=C1CCN(S(=O)(=O)c1ccc(N3CCOCC3)nc1)C2` (stereo partly drawn) [Example 53, (R)-1-(4-Fluorophenyl)-6-(6-morpholin-4-yl-pyridine-3-sulfonyl]-1,4,5,6,7,8-hexahydro-1,2,6-triaza-cyclopenta[b]naphthalene-4a-carboxylic acid 3-hydroxycyclobutylmethyl ester], for which the figures for the Ki in assay [1] and in assay [2] were more than 1 nM and 10 to 50 nM, respectively.

With `CC1(COC(=O)[C@]23Cc4cnn(-c5ccc(F)cc5)c4C=C2CCN(S(=O)(=O)c2ccc(N4CCOCC4)nc2)C3)COC1` [Example 54, (R)-1-(4-Fluorophenyl)-6-(6-morpholin-4-yl-pyridine-3-sulfonyl]-1,4,5,6,7,8-hexahydro-1,2,6-triaza-cyclopenta[b]naphthalene-4a-carboxylic acid 3-methyloxetan-3-ylmethyl ester], the Ki in assay [1] was more than 1 nM; in assay [2] it was more than 50 nM.

For `O=C(OCCO)[C@]12Cc3cnn(-c4ccc(F)cc4)c3C=C1CCN(S(=O)(=O)c1ccc(N3CCOCC3)nc1)C2` [Example 55, (R)-1-(4-Fluorophenyl)-6-(6-morpholin-4-yl-pyridine-3-sulfonyl]-1,4,5,6,7,8-hexahydro-1,2,6-triaza-cyclopenta[b]naphthalene-4a-carboxylic acid 2-hydroxethyl ester], the Ki was more than 1 nM in assay [1] and more than 50 nM in assay [2].

As for `CN(C)CCOC(=O)[C@]12Cc3cnn(-c4ccc(F)cc4)c3C=C1CCN(S(=O)(=O)c1ccc(N3CCOCC3)nc1)C2` [Example 56, (R)-1-(4-Fluorophenyl)-6-(6-morpholin-4-yl-pyridine-3-sulfonyl]-1,4,5,6,7,8-hexahydro-1,2,6-triaza-cyclopenta[b]naphthalene-4a-carboxylic acid 2-dimethylaminoethyl ester], the Ki in assay [1] is more than 1 nM; in assay [2], more than 50 nM.

For `Cc1cc(COC(=O)[C@]23Cc4cnn(-c5ccc(F)cc5)c4C=C2CCN(S(=O)(=O)c2ccc(N4CCOCC4)nc2)C3)no1` [Example 57, (R)-1-(4-Fluorophenyl)-6-(6-morpholin-4-yl-pyridine-3-sulfonyl]-1,4,5,6,7,8-hexahydro-1,2,6-triaza-cyclopenta[b]naphthalene-4a-carboxylic acid 5-methylisoxazol-3-ylmethyl ester], the figures for the Ki in assay [1] and in assay [2] were 0.5 to 1 nM and 10 to 50 nM, respectively.

With `O=C(OCC1CC1)[C@]12Cc3cnn(-c4ccc(F)cc4)c3C=C1CCN(S(=O)(=O)c1ccc(C(F)(F)F)nc1)C2` [Example 58], the Ki in assay [1] is 0.5 to 1 nM; in assay [2], less than 10 nM.

Turning to `COc1ccc(S(=O)(=O)N2CCC3=Cc4c(cnn4-c4ccc(F)cc4)C[C@]3(C(=O)OCC3CCC3)C2)cn1` [Example 59, (R)-1-(4-Fluorophenyl)-6-(6-methoxypyridine-3-sulfonyl)-1,4,5,6,7,8-hexahydro-1,2,6-triaza-cyclopenta[b]naphthalene-4a-carboxylic acid cyclobutylmethyl ester], the Ki in assay [1] is 0.5 to 1 nM; in assay [2], less than 10 nM.

Consider `Cc1cc(COC(=O)[C@]23Cc4cnn(-c5ccc(F)cc5)c4C=C2CCN(S(=O)(=O)c2ccc(N4CC[C@@H](F)C4)nc2)C3)no1` [Example 60, (R)-1-(4-Fluorophenyl)-6-[6-((R)-3-fluoropyrrolidin-1-yl)-pyridine-3-sulfonyl]-1,4,5,6,7,8-hexahydro-1,2,6-triaza-cyclopenta[b]naphthalene-4a-carboxylic acid 5-methylisoxazol-3-ylmethyl ester], for which the inhibition constant Ki in assay [1] lay in the range of 0.5 to 1 nM; in assay [2], 10 to 50 nM.

With `O=C(OCC1CC(O)C1)[C@]12Cc3cnn(-c4ccc(F)cc4)c3C=C1CCN(S(=O)(=O)c1ccc(N3CC[C@@H](F)C3)nc1)C2` (stereo partly drawn) [Example 61, (R)-1-(4-Fluorophenyl)-6-[6-((R)-3-fluoropyrrolidin-1-yl)-pyridine-3-sulfonyl]-1,4,5,6,7,8-hexahydro-1,2,6-triaza-cyclopenta[b]naphthalene-4a-carboxylic acid 3-hydroxy cyclobutylmethyl ester], the figures for the Ki in assay [1] and in assay [2] were more than 1 nM and 10 to 50 nM, respectively.

As for `O=S(=O)(c1ccc(N2CCOCC2)nc1)N1CCC2=Cc3c(cnn3-c3ccc(F)cc3)C[C@]2(CN2CC[C@H](O)C2)C1` [Example 62, (S)-1-[(S)-1-(4-Fluorophenyl)-6-[6-morpholin-4-yl-pyridine-3-sulfonyl)-1,4,5,6,7,8-hexahydro-1,2,6-triaza-cyclopenta[b]naphthalene-4a-ylmethyl]-pyrrolidin-3-ol], the results for the Ki in assay [1] and in assay [2] were more than 1 nM and more than 50 nM, respectively.

With `O=S(=O)(c1ccc(N2CCOCC2)nc1)N1CCC2=Cc3c(cnn3-c3ccc(F)cc3)C[C@]2(CN2CC[C@@H](O)C2)C1` [Example 63, (R)-1-[(S)-1-(4-Fluorophenyl)-6-[6-morpholin-4-yl-pyridine-3-sulfonyl)-1,4,5,6,7,8-hexahydro-1,2,6-triaza-cyclopenta[b]naphthalene-4a-ylmethyl]-pyrrolidin-3-ol], the Ki in assay [1] was more than 1 nM; in assay [2], 10 to 50 nM.

For `COCCOC[C@]12Cc3cnn(-c4ccc(F)cc4)c3C=C1CCN(S(=O)(=O)c1ccc(N3CCOCC3)nc1)C2` [Example 64, (R)-1-(4-Fluoro-phenyl)-4a-(2-methoxy-ethoxymethyl)-6-(6-morpholin-4-yl-pyridine-3-sulfonyl)-4,4a,5,6,7,8-hexahydro-1H-1,2,6-traza-cyclopenta[b]naphthalene], the Ki is 0.5 to 1 nM in assay [1] and less than 10 nM in assay [2].

By Ki is commonly meant the equilibrium dissociation constant of an inhibitor or competing ligand from its target.
